Structures can show the parent of a compound that is named as a salt.
Experiments:
PI 4-kinase beta = PI 4-kinase beta (Homo sapiens (Human), UniProt Q9UBF8); settings: read-out: Assay D PI4Kβ IC50
Vps34 = Vps34 (Homo sapiens (Human), UniProt Q8NEB9); settings: read-out: Assay C VPS34 IC50
mTOR = mTOR (Homo sapiens (Human), UniProt P42345); settings: read-out: Assay G mTOR IC50

Sequence of PI 4-kinase beta (Q9UBF8 whole entry): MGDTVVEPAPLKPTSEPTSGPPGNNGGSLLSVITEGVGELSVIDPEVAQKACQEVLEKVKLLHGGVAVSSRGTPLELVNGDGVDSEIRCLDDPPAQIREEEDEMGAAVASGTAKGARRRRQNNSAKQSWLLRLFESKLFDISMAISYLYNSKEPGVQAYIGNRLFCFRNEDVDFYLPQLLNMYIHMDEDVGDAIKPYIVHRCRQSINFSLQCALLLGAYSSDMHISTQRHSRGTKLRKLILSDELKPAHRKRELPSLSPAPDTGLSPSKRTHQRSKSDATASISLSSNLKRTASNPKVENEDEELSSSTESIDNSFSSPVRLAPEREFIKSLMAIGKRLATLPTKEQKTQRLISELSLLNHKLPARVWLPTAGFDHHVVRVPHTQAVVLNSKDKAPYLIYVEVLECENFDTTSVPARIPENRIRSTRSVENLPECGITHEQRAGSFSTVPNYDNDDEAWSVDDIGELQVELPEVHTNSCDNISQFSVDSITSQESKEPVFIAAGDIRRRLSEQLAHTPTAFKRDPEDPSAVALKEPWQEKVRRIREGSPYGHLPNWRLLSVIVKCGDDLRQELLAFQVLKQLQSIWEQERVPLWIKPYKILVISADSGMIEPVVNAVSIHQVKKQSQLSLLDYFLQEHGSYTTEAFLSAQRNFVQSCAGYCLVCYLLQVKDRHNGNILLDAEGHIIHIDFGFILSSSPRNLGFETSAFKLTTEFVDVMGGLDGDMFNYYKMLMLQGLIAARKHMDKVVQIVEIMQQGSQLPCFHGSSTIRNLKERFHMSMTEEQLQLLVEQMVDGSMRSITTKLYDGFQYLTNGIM
Sequence of Vps34 (Q8NEB9 whole entry): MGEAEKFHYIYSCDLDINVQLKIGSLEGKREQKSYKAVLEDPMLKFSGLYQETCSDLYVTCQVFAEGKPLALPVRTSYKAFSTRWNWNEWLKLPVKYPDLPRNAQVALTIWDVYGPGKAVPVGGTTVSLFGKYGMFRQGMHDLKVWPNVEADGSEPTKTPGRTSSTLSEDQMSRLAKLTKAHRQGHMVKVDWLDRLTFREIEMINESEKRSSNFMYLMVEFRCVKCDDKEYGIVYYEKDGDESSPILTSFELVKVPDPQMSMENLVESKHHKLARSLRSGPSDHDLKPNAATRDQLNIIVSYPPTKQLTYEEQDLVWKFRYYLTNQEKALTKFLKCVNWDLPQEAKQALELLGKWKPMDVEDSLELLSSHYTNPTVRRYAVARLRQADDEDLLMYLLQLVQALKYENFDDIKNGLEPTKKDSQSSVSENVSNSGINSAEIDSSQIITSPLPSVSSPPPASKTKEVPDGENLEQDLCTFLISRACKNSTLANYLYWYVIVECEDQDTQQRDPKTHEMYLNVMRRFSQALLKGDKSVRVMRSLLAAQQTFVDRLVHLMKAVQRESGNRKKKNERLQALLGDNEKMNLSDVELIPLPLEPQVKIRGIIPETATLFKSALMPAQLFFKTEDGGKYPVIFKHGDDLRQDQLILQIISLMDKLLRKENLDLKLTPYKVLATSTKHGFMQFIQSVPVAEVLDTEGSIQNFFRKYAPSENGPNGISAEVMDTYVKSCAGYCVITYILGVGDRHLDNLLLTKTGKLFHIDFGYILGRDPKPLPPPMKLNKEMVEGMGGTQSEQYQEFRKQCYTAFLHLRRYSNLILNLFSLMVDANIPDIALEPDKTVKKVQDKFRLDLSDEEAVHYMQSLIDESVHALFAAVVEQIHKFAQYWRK

| Structure (SMILES) | IC50 (PI 4-kinase beta) | IC50 (Vps34) | IC50 (mTOR) |
| --- | --- | --- | --- |
| Cc1cccc(NS(=O)(=O)c2ccc(C)c(-c3cnc(N)c(-c4cnn(CC(F)(F)F)c4)c3)c2)n1 [Example 1, 3-{6-Amino-5-[1-(2,2,2-trifluoro-ethyl)-1H-pyrazol-4-yl]-pyridin-3-yl}-4-methyl-N-(6-methyl-pyridin-2-yl)-benzenesulfonamide] | 1.95 µM | > 9.1 µM | 2.37 µM |
| Cc1ccc(S(=O)(=O)NCCC(C)(C)O)cc1-c1cnc(N)c(-c2cnn(C)c2)c1 [Example 2, 3-(6-Amino-5-(1-methyl-1H-pyrazol-4-yl)pyridin-3-yl)-N-(3-hydroxy-3-methylbutyl)-4-methylbenzenesulfonamide] | 5.4 µM | > 9.1 µM | > 9.1 µM |
| Cc1ccc(S(=O)(=O)N[C@H]2CC[C@H](O)CC2)cc1-c1cnc(N)c(-c2cnn(CC(F)(F)F)c2)c1 [Example 4.2, trans 3-(6-Amino-5-(1-(2,2,2-trifluoroethyl)-1H-pyrazol-4-yl)pyridin-3-yl)-N-(4-hydroxycyclohexyl)-4-methyl-benzenesulfonamide] | 0.65 µM | > 10 µM | 1.3 µM |
| Cc1ccc(S(=O)(=O)NCC(C)(C)O)cc1-c1cnc(N)c(-c2cnn(C)n2)c1 [Example 4.4, 3-(6-amino-5-(2-methyl-2H-1,2,3-triazol-4-yl)pyridin-3-yl)-N-(2-hydroxy-2-methylpropyl)-4-methylbenzenesulfonamide hydrochloride] | 8.2 µM | > 10 µM | > 10 µM |
| Cc1ccc(S(=O)(=O)N[C@H]2CC[C@H](O)CC2)cc1-c1cnc(N)c(-c2cnn(C)n2)c1 [Example 4.5, trans 3-(6-Amino-5-(2-methyl-2H-1,2,3-triazol-4-yl)pyridin-3-yl)-N-(4-hydroxycyclohexyl)-4-methylbenzene sulfonamide hydrochloride] | 5.25 µM | > 10 µM | > 10 µM |
| CCc1cc(-c2cc(-c3cc(S(=O)(=O)NCC(C)(C)O)ccc3C)cnc2N)on1 [Example 4.6, 3-(6-Amino-5-(3-ethylisoxazol-5-yl)pyridin-3-yl)-N-(2-hydroxy-2-methylpropyl)-4-methyl-benzenesulfonamide hydrochloride] | 2.7 µM | > 10 µM | 1.4 µM |
| Cc1cc(-c2cc(-c3cc(S(=O)(=O)NC[C@H]4CCOC4)ccc3C)cnc2N)on1 [Example 4.7, (R)-3-(6-Amino-5-(3-methylisoxazol-5-yl)pyridin-3-yl)-4-methyl-N-((tetra hydrofuran-3-yl)methyl)benzene-sulfonamide hydrochloride] | 1.7 µM | > 10 µM | 7.7 µM |
| Cc1cc(-c2cc(-c3cc(S(=O)(=O)NCC(C)(C)O)ccc3C)cnc2N)sn1 [Example 4.8, 3-(6-Amino-5-(3-methylisothiazol-5-yl)pyridin-3-yl)-N-(2-hydroxy-2-methylpropyl)-4-methyl-benzenesulfonamide hydrochloride] | 3.15 µM | > 10 µM | > 10 µM |
| Cc1noc(-c2cc(-c3cc(S(=O)(=O)NCC4(C)COC4)ccc3C)cnc2N)n1 [Example 4.9, 3-(6-Amino-5-(3-methyl-1,2,4-oxadiazol-5-yl)pyridin-3-yl)-4-methyl-N-((3-methyloxetan-3-yl)methyl)benzene-sulfonamide] | > 10 µM | > 10 µM | > 10 µM |
| Cc1noc(-c2cc(-c3cc(S(=O)(=O)NCCC(C)(C)O)ccc3C)cnc2N)n1 [Example 5, 3-[6-Amino-5-(3-methyl-[1,2,4]oxadiazol-5-yl)-pyridin-3-yl]-N-(3-hydroxy-3-methyl-butyl)-4-methyl-benzenesulfonamide hydrochloride] | 4.9 µM | > 9.55 µM | 6.5 µM |
| Cc1ccc(S(=O)(=O)NCC(C)(C)O)cc1-c1cnc(N)c(-c2nc(C(C)C)no2)c1 [Example 5.1, 3-(6-Amino-5-(3-isopropyl-1,2,4-oxadiazol-5-yl)pyridin-3-yl)-N-(2-hydroxy-2-methylpropyl)-4-methylbenzenesulfonamide hydrochloride] | 4.4 µM | > 10 µM | 8.2 µM |
| Cc1cnc(-c2cc(-c3cc(S(=O)(=O)N[C@H]4CC[C@H](O)CC4)ccc3C)cnc2N)o1 [Example 5.2, trans 3-(6-Amino-5-(5-methyloxazol-2-yl)pyridin-3-yl)-N-(4-hydroxycyclohexyl)-4-methylbenzene sulfonamide hydrochloride] | 0.9 µM | > 10 µM | > 10 µM |
| Cc1ncc(-c2cc(-c3cc(S(=O)(=O)NCCCO)ccc3C)cnc2N)s1 [Example 9, 3-[6-Amino-5-(2-methyl-thiazol-5-yl)-pyridin-3-yl]-N-(3-hydroxy-propyl)-4-methyl-benzenesulfonamide] | 1.92 µM | 0.89 µM | 5.9 µM |
| Cc1noc(-c2cc(-c3cc(S(=O)(=O)NOCC(C)(C)O)ccc3C)cnc2N)n1 [Example 11, 3-[6-Amino-5-(3-methyl-[1,2,4]oxadiazol-5-yl)-pyridin-3-yl]-N-(2-hydroxy-2-methyl-propoxy)-4-methyl-benzenesulfonamide, hydrochloride salt] | 5.1 µM | > 10 µM | > 10 µM |
| Cc1noc(-c2cc(-c3cc(S(=O)(=O)N[C@H]4CC[C@H](O)CC4)ccc3C)cnc2N)n1 [Example 12, trans 3-[6-Amino-5-(3-methyl-[1,2,4]oxadiazol-5-yl)-pyridin-3-yl]-N-(4-hydroxy-cyclohexyl)-4-methyl-benzenesulfonamide, hydrochloride salt] | 5.3 µM | > 10 µM | > 10 µM |
| Cc1ncc(-c2cc(-c3cc(S(=O)(=O)NCCC(C)(C)O)ccc3C)cnc2N)o1 [Example 13, 3-[6-Amino-5-(2-methyl-oxazol-5-yl)-pyridin-3-yl]-N-(3-hydroxy-3-methyl-butyl)-4-methyl-benzenesulfonamide, hydrochloride salt] | 4.4 µM | > 10 µM | 1.6 µM |
| Cc1ccc(S(=O)(=O)NCCC(C)(C)O)cc1-c1cnc(N)c(-c2ccncc2)c1 [Example 18, 3-(2-Amino-[3,4′]bipyridinyl-5-yl)-N-(3-hydroxy-3-methyl-butyl)-4-methyl-benzenesulfonamide] | > 9.1 µM | > 9.1 µM | > 9.1 µM |
| Cc1noc(-c2cc(-c3cc(S(=O)(=O)N[C@H]4CC[C@H](CO)CC4)ccc3C)cnc2N)n1 [Example 19, trans 3-[6-Amino-5-(3-methyl-[1,2,4]oxadiazol-5-yl)-pyridin-3-yl]-N-(4-hydroxymethyl-cyclohexyl)-4-methyl-benzenesulfonamide hydrochloride] | 1.3 µM | > 10 µM | > 10 µM |
| Cc1noc(-c2cc(-c3cc(S(=O)(=O)NCC4CCOC4)ccc3C)cnc2N)n1 (stereo not drawn) [Example 29, 3-(6-Amino-5-(3-methyl-1,2,4-oxadiazol-5-yl)pyridin-3-yl)-4-methyl-N-((tetrahydrofuran-3-yl)methyl)benzenesulfonamide] | 9.9 µM | > 10 µM | > 10 µM |
| Cc1noc(-c2cc(-c3cc(S(=O)(=O)NCCC4(O)CCCC4)ccc3C)cnc2N)n1 [Example 37.11, 3-(6-Amino-5-(3-methyl-1,2,4-oxadiazol-5-yl)pyridin-3-yl)-N-(2-(1-hydroxycyclopentyl)ethyl)-4-methylbenzenesulfonamide] | 8.1 µM | > 10 µM | > 10 µM |
